Legend:
[1] = tested on: HCMV (TB40-epi); assay: HCMV infectious particle yield from LNA-transfected ARPE-19 epithelial cells, PFU/ml; type: cell-based; settings: ARPE-19, PFU/ml; 96 hpi
Protocol: FIG. 26 discloses the effect of HSATII knockdown using four different HSAT-II LNAs on the production of HCMV infectious particles from human retinal pigment cells. Media samples were collected at 96 hpi from ARPE-19 cells transfected with NT-LNA or different HSATII-LNAs 24 h before HCMV (TB40-epi) infection at 1 TCID50/cell. PFU/ml values were determined. Data were averaged from at least three independent experiments and are presented as a mean (SD). Unpaired, two-tailed t-test was used to measure significance. One, two, three or four asterisks represent p<0.05, p<0.01, p<0.001 or p<0.0001, respectively.
Media samples were collected at 96 hpi from ARPE-19 cells transfected with NT-LNA or different HSATII-LNAs 24 h before HCMV (TB40-epi) infection at 1 TCID50/cell. PFU/ml values were determined. Data were averaged from at least three independent experiments and are presented as a mean (SD). […] Cells treated with the combined HSATII-LNA #1 and HSATII-LNA #2 produced only ˜0.6% of intracellular and ˜1% extracellular HCMV viral particles produced by control cells treated with NT-LNA. To compare, cells treated with HSATII-LNA #1 produced ˜33% of intracellular and ˜6% of extracellular HCMV viral particles produced by control cells treated with NT-LNA. Cells treated with HSATII-LNA #2 produced 23% of intracellular and 6% of extracellular HCMV viral particles produced by control cells treated with NT-LNA. Unpaired, two-tailed t-test was used to measure significance. One, two, three or four asterisks represent p<0.05, p<0.01, p<0.001 or p<0.0001, respectively.
Locked nucleic acid oligonucleotides were designed to target identified, highly abundant HSATII transcripts from different chromosomal loci. […] Cells were collected at the indicated time post infection using QIAzol buffer (QIAGEN, Hilden, Germany) and stored at −80° C. until sample processing.

[2] = tested on: HSATII; assay: HSATII RNA RT-qPCR in HCMV-infected HFFs treated with CHX or GCV; type: cell-based, human; settings: for HSATII levels: HFFs, HCMV 1 TCID50/cell, GCV added after 2 h
Protocol: FIGS. 2a-d disclose HSATII induction levels in cells infected with active virus as compared to UV-irradiated virus. a HFFs were infected with untreated or UV-irradiated HCMV (TB40/E-GFP) at 3 TCID50/cell, RNA samples were collected at specified times. b HFFs were treated with CHX or DMSO, as a solvent control, 24 h before HCMV (TB40/E-GFP) infection at 1 TCID50/cell. RNA samples were collected at 24 hpi. c HFFs were infected with HCMV (TB40/E-GFP) at 1 TCID50/cell for 2 h and then media was changed for one containing GCV or DMSO as a solvent control. RNA samples were collected at 24 and 48 hpi. d Tetracycline-inducible […] and/or IE2 MRC-5 and ARPE-19 cells were treated with doxycycline. RNA samples were collected at indicated times. a-d RT-qPCR was performed using HSATII-specific primers. GAPDH was used as an internal control. n=3. Data are presented as a fold change mean±SD. a-c ***P<0.001, ****P<0.0001 by the unpaired, two-tailed t-test with (b, c) or without (a) Welch's correction. ns—not significant. Open circles represent single data points.
(§1) Cyclohexamide (Sigma-Aldrich) and ganciclovir (Sigma-Aldrich) were dissolved in DMSO and used at 100 μg ml^−1 or 50 1.1M concentrations, respectively. Doxycycline (Sigma-Aldrich) was dissolved in water and used at 2 μg ml^−1. Puromycin was dissolved in water and used at 1.5 1.1 g ml^−1 (MRC-5) or 21.1 g ml^−1 (ARPE-19). G418 was dissolved in water and used at 800 μg ml-1 (MRC-5) or 1 mg ml-1 G418 (ARPE-19).
(§2) For quantitative reverse transcription PCR (qRT-PCR) analysis, cells were collected in QIAzol Lysis Reagent (Qiagen). To fractionate RNA, DNA and proteins chloroform was added; samples were spun at 12,000×g for 15 min. at 4° C. […] Quantitative PCR (qPCR) was performed using SYBR Green master mix (Applied Biosystems by Thermo Fisher Scientific, Foster City, Calif.) on the QuantStudio 6 Flex-Real Time PCR System (Applied Biosystems by Thermo Fisher Scientific). […]
(§3) Transcript levels were analyzed using the […] method and GAPDH or B2M were used as an internal control. […]

[3] = tested on: UL99; assay: UL99 late gene RNA RT-qPCR in HCMV-infected HFFs treated with GCV; type: cell-based; settings: HCMV 1 TCID50/cell, 48 hpi
Protocol: FIG. 12 discloses the accumulation of UL99 gene RNA in the presence of DMSO or GCV in infected cells. HFFs were infected with HCMV (TB40/E-GFP; 1 TCID50/cell) for 2 h and then media was changed for one containing GCV or DMSO as a solvent control. RNA samples were collected at 48 hpi. RT-qPCR was performed using UL99-specific primers. GAPDH was used as an internal control. Data were averaged from at least three experiments and are presented as a fold change mean (SD).
as §1
as §2, with “(Qiagen).” for “(Qiagen). To fractionate RNA, DNA and proteins chloroform was added; samples were spun at 12,000×g for 15 min. at 4° C.”
as §3

With “HSATII-LNA #2: locked nucleic acid oligonucleotide targeting HSATII transcripts, 5′-GATTCCATTCGATGAT-3′ (locked nucleic acid oligonucleotide, LNA positions and linkages not given here)” the “extracellular HCMV viral particles, % of those produced by control cells treated with NT-LNA” value [1] was 6% and the “intracellular HCMV viral particles, % of those produced by control cells treated with NT-LNA” value [1] was 23%.
For `Nc1nc(O)c2ncn(COC(CO)CO)c2n1` [ganciclovir], the HSATII levels ([2]; 24 hpi) was “did not change”, the HSATII levels ([2]; 48 hpi) was “did not change” and the “accumulation of RNA from the late UL99 gene” value [3] was “blocked”.
With `C[C@@H]1C[C@@H]([C@H](O)CC2CC(=O)NC(=O)C2)C(=O)[C@@H](C)C1` [Cycloheximide] the “reduction of HSATII accumulation compared to solvent control” value ([2]; HFFs treated with CHX 24 h before HCMV (TB40/E-GFP) infection at 1 TCID50/cell, 24 hpi) was 33 fold.
“HSATII-LNA #1: locked nucleic acid oligonucleotide targeting HSATII transcripts, 5′-CCATTCGATAATTCCG-3′ (locked nucleic acid oligonucleotide, LNA positions and linkages not given here)” was tested, and the “extracellular HCMV viral particles, % of those produced by control cells treated with NT-LNA” value [1] was roughly 6% and the “intracellular HCMV viral particles, % of those produced by control cells treated with NT-LNA” value [1] was roughly 33%.
